Source: patent US20040082635A1, “Fused cyclic compounds and medicinal use thereof” (priority 2001, published 2004)
pIC50: −log10 of the molar value. Where a name gives a salt, the structure may show the parent alone.

Target: T1, HCV polymerase (Hepatitis C virus genotype 1b, UniProt P26663)
T1 construct: a region encoding NS5B (591 amino acids; J Virol 1991 Mar, 65(3), 1105-13) was amplified by PCR; 6 His (N); made in house; host or cells: Escherichia coli
Assay: biochemical
Conditions: read-out: HCV polymerase inhibitory activity IC50

T1 sequence (P26663 2420-3010): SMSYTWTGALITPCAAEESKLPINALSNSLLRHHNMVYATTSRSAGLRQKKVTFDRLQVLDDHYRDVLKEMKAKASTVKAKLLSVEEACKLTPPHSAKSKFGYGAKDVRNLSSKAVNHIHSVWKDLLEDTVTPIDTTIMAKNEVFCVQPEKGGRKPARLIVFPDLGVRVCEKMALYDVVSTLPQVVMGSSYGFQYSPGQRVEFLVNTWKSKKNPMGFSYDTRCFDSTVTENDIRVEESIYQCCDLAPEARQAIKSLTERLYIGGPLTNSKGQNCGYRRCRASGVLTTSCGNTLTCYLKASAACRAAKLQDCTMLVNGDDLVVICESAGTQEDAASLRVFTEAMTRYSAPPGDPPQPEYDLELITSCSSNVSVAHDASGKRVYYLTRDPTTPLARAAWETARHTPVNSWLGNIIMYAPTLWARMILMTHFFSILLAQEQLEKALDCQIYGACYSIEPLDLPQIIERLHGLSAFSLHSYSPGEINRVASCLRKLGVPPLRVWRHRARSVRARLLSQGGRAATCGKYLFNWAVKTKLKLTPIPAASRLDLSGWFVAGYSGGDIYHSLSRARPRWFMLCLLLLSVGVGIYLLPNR

## CCCN(c1ccc(-c2ccc(Cl)cc2)c(COc2ccc(-c3nc4cc(C(=O)O)ccc4n3C3CCCCC3)c(F)c2)c1)S(C)(=O)=O [Example 462, 2-[4-{2-(4-chlorophenyl)-5-[N-(methylsulfonyl)-N-propylamino]benzyloxy}-2-fluorophenyl]-1-cyclohexylbenzimidazole-5-carboxylic acid hydrochloride]
  pIC50: 7.55

## O=C(O)c1ccc2c(c1)nc(-c1ccc(Oc3cccc(OCC(=O)N4CCCCC4)c3)cc1)n2C1CCCCC1 [Example 197, 1-cyclohexyl-2-{4-[3-(piperidinocarbonylmethoxy)phenoxy]-phenyl}benzimidazole-5-carboxylic acid]
  pIC50: 6.96

## O=C(O)c1ccc2c(c1)nc(-c1ccc(OCc3cc(C(=O)NCc4ccccc4)ccc3-c3ccc(Cl)cc3)cc1)n2C1CCCCC1 [Example 316, 2-{4-[2-(4-chlorophenyl)-5-(benzylcarbamoyl)benzyloxy]phenyl}-1-cyclohexylbenzimidazole-5-carboxylic acid hydrochloride]
  pIC50: 7.66

## O=C(O)c1ccc2c(c1)nc(-c1ccc(OCc3cc(C(=O)NCC4CCCCC4)ccc3-c3ccc(Cl)cc3)cc1)n2C1CCCCC1 [Example 317, 2-{4-[2-(4-chlorophenyl)-5-(cyclohexylmethylcarbamoyl)-benzyloxy]phenyl}-1-cyclohexylbenzimidazole-5-carboxylic acid hydrochloride]
  pIC50: 7.49

## O=C(O)c1ccc2c(c1)nc(-c1ccc(OC[C@@H]3CCCN3C(=O)c3ccccc3)cc1)n2C1CCCCC1 [Example 194, 2-{4-[{(2S)-1-benzoyl-2-pyrrolidinyl}methoxy]phenyl}-1-cyclohexylbenzimidazole-5-carboxylic acid]
  pIC50: 6.28

## CCOC(=O)c1ccc(-c2ccc(Cl)cc2)c(COc2ccc(-c3nc4cc(C(=O)O)ccc4n3C3CCCCC3)cc2)c1 [Example 229, 2-{4-[2-(4-chlorophenyl)-5-ethoxycarbonylbenzyloxy]phenyl}-1-cyclohexylbenzimidazole-5-carboxylic acid]
  pIC50: 7.66

## CN(C)C(=O)c1ccc(-c2ccc(S(C)(=O)=O)cc2)c(COc2ccc(-c3nc4cc(C(=O)O)ccc4n3C3CCCCC3)cc2)c1 [Example 271, 2-{4-[3-dimethylcarbamoyl-6-(4-methanesulfonylphenyl)benzyloxy]-phenyl}-1-cyclohexylbenzimidazole-5-carboxylic acid hydrochloride]
  pIC50: 7.62

## O=C(O)c1ccc2c(c1)nc(-c1ccc(OCc3cc(Cl)ccc3-c3ccc(F)cc3)cc1)n2C1CCCCC1 [Example 171, 2-{4-[3-chloro-6-(4-fluorophenyl)benzyloxy]phenyl}-1-cyclohexylbenzimidazole-5-carboxylic acid]
  pIC50: 7.30

## O=C(O)c1ccc2c(c1)nc(-c1ccc(OCc3cc(C(=O)NCCO)ccc3-c3ccc(Cl)cc3)cc1F)n2C1CCCCC1 [Example 288, 2-{4-[2-(4-chlorophenyl)-5-(2-hydroxyethyl)carbamoylbenzyloxy]-2-fluorophenyl}-1-cyclohexylbenzimidazole-5-carboxylic acid]
  pIC50: 7.89

## CSc1ccc(-c2ccc(C(=O)N(C)C)cc2COc2ccc(-c3nc4cc(C(=O)O)ccc4n3C3CCCCC3)cc2)cc1 [Example 267, 1-cyclohexyl-2-{4-[3-dimethylcarbamoyl-6-(4-methylthiophenyl)-benzyloxy]phenyl}benzimidazole-5-carboxylic acid hydrochloride]
  pIC50: 7.85

## CC(C)(C)NC(=O)c1ccc(-c2ccc(Cl)cc2)c(COc2ccc(-c3nc4cc(C(=O)O)ccc4n3C3CCCCC3)c(F)c2)c1 [Example 379, 2-{4-[2-(4-chlorophenyl)-5-(tert-butylcarbamoyl)benzyloxy]-2-fluorophenyl}-1-cyclohexylbenzimidazole-5-carboxylic acid hydrochloride]
  pIC50: 7.68

## CC(=O)Nc1ccc(N2CCC[C@H]2COc2ccc(-c3nc4cc(C(=O)O)ccc4n3C3CCCCC3)cc2)cc1 [Example 205, 2-{4-[{(2S)-1-(4-acetylaminophenyl)-2-pyrrolidinyl}methoxy]-phenyl}-1-cyclohexylbenzimidazole-5-carboxylic acid]
  pIC50: 7.11

## O=C(O)c1ccc2c(c1)nc(-c1ccc(OC(c3ccc(F)cc3)c3ccc(F)cc3)cc1)n2C1CCCCC1 [Example 134, 2-{4-[bis(4-fluorophenyl)methoxy]phenyl}-1-cyclohexylbenzimidazole-5-carboxylic acid]
  pIC50: 7.15

## O=C(O)c1ccc2c(c1)nc(-c1ccc(OCc3cc(NC(=O)N4CCOCC4)ccc3-c3ccc(Cl)cc3)cc1F)n2C1CCCCC1 [Example 392, 2-{4-[2-(4-chlorophenyl)-5-{(morpholinocarbonyl)amino}benzyloxy]-2-fluorophenyl}-1-cyclohexylbenzimidazole-5-carboxylic acid hydrochloride]
  pIC50: 7.85

## CC(C)NC(=O)c1cc(COc2ccc(-c3nc4cc(C(=O)O)ccc4n3C3CCCCC3)c(F)c2)c(-c2ccc(F)cc2)s1 [Example 432, 2-{4-[{2-(4-fluorophenyl)-5-(isopropylcarbamoyl)thiophen-3-yl}methoxy]-2-fluorophenyl}-1-cyclohexylbenzimidazole-5-carboxylic acid hydrochloride]
  pIC50: 7.66

## CN(C)C(=O)c1ccc(C(Oc2ccc(-c3nc4cc(C(=O)O)ccc4n3C3CCCCC3)c(F)c2)c2ccc(F)cc2)cc1 (stereo not drawn) [Example 326, 2-{4-[(4-fluorophenyl){4-(dimethylaminocarbonyl)phenyl}methoxy]-2-fluorophenyl}-1-cyclohexylbenzimidazole-5-carboxylic acid]
  pIC50: 7.74

## O=C(O)c1ccc2c(c1)nc(-c1ccc(OCc3cc(F)ccc3-c3ccc(Cl)cc3)cc1)n2C1CCCCC1 [Example 188, 2-{4-[2-(4-chlorophenyl)-5-fluorobenzyloxy]phenyl}-1-cyclohexylbenzimidazole-5-carboxylic acid]
  pIC50: 7.42

## COc1ccc(-c2ccc(Cl)cc2)c(COc2ccc(-c3nc4cc(S(=O)(=O)O)ccc4n3C3CCCCC3)cc2)c1 [Example 257, 2-{4-[2-(4-chlorophenyl)-5-methoxybenzyloxy]phenyl}-1-cyclohexylbenzimidazole-5-sulfonic acid]
  pIC50: 7.13

## O=C(O)c1ccc2c(c1)nc(-c1ccc(OCc3cc(Cl)ccc3Br)cc1)n2C1CCCCC1 [Example 173, 2-[4-(2-bromo-5-chlorobenzyloxy)phenyl]-1-cyclohexylbenzimidazole-5-carboxylic acid]
  pIC50: 6.85

## O=C(O)c1ccc2c(c1)nc(-c1ccc(OCc3cc(Cl)ccc3-c3ccc(-c4nnn[nH]4)cc3)cc1)n2C1CCCCC1 [Example 369, 2-{4-[5-chloro-2-(4-tetrazol-5-ylphenyl)benzyloxy]phenyl}-1-cyclohexylbenzimidazole-5-carboxylic acid hydrochloride]
  pIC50: 7.66

## O=C(O)c1ccc2c(c1)nc(-c1ccc(Oc3ccccc3Oc3ccccc3)cc1)n2C1CCCCC1 [Example 128, 1-cyclohexyl-2-[4-(2-phenoxyphenoxy)phenyl]benzimidazole-5-carboxylic acid]
  pIC50: 6.85

## O=C(O)c1ccc2c(c1)nc(-c1ccc(OCc3cc(N4CCCS4(=O)=O)ccc3-c3ccc(Cl)cc3)cc1F)n2C1CCCCC1 [Example 446, 2-{4-[2-(4-chlorophenyl)-5-(1,1-dioxoisothiazolidin-2-yl)benzyloxy]-2-fluorophenyl}-1-cyclohexylbenzimidazole-5-carboxylic acid hydrochloride]
  pIC50: 7.80

## O=C(O)c1ccc2c(c1)nc(-c1ccc(Oc3ccccc3-c3ccccc3)cc1)n2C1CCCCC1 [Example 153, 2-[4-(2-biphenylyloxy)phenyl]-1-cyclohexylbenzimidazole-5-carboxylic acid]
  pIC50: 6.72

## O=C(O)c1ccc2c(c1)nc(-c1ccc(OCc3cc(C(=O)N4CC[C@H](O)[C@H](O)C4)ccc3-c3ccc(Cl)cc3)cc1)n2C1CCCCC1 (stereo in doubt) [Example 348, 2-{4-[2-(4-chlorophenyl)-5-(3,4-dihydroxypiperidin-1-ylcarbonyl)benzyloxy]phenyl}-1-cyclohexylbenzimidazole-5-carboxylic acid hydrochloride]
  pIC50: 7.89

## O=C(O)c1ccc2c(c1)nc(-c1ccc(Oc3cccc(OCc4ccccn4)c3)cc1)n2C1CCCCC1 [Example 187, 1-cyclohexyl-2-{4-[3-(2-pyridylmethoxy)phenoxy]phenyl}-benzimidazole-5-carboxylic acid]
  pIC50: 7.25

## O=C(O)c1ccc(-c2ccc(Cl)cc2)c(COc2ccc(-c3nc4cc(C(=O)O)ccc4n3C3CCCCC3)cc2)c1 [Example 189, 2-{4-[3-carboxy-6-(4-chlorophenyl)benzyloxy]phenyl}-1-cyclohexylbenzimidazole-5-carboxylic acid]
  pIC50: 7.77

## CNC(=O)c1nc(-c2ccc(F)cc2)c(COc2ccc(-c3nc4cc(C(=O)O)ccc4n3C3CCCCC3)c(F)c2)s1 [Example 429, 2-{4-[{4-(4-fluorophenyl)-2-(methylcarbamoyl)thiazol-5-yl}methoxy]-2-fluorophenyl}-1-cyclohexylbenzimidazole-5-carboxylic acid hydrochloride]
  pIC50: 7.77

## O=C(O)c1ccc2c(c1)nc(-c1ccc(OCCc3cccc4ccccc34)cc1)n2C1CCCCC1 [Example 103, 1-cyclohexyl-2-{4-[2-(1-naphthyl)ethoxy]phenyl}benzimidazole-5-carboxylic acid]
  pIC50: 6.77

## O=C(O)c1ccc(-c2ncccc2COc2ccc(-c3nc4cc(C(=O)O)ccc4n3C3CCCCC3)cc2)cc1 [Example 263, 2-{4-[{2-(4-carboxyphenyl)-3-pyridyl}methoxy]phenyl}-1-cyclohexylbenzimidazole-5-carboxylic acid]
  pIC50: 7.46

## O=C(O)c1ccc2c(c1)nc(-c1ccc(OCc3ccc(C(=O)N4CCC(O)CC4)cc3-c3ccc(Cl)cc3)cc1)n2C1CCCCC1 [Example 354, 2-{4-[2-(4-chlorophenyl)-4-(4-hydroxypiperidin-1-ylcarbonyl)benzyloxy]phenyl}-1-cyclohexylbenzimidazole-5-carboxylic acid hydrochloride]
  pIC50: 7.89
